The experiment has as its target T1, vanilloid receptor 1 (VR1/TRPV1) (Rattus norvegicus, UniProt O35433).
T1 construct: from tissue; host or cells: primary cells dissociated from rat dorsal root ganglia (DRGs), cultured for two to three days
The experiment can be described thus: Functional investigation on the vanilloid receptor 1 (FLIPR Ca2+ influx assay, capsaicin). Conditions: rat dorsal root ganglia cells, Fluo-4 FLIPR, 100 nM capsaicin. It counts as cell-based. An excerpt:
I. Functional Investigation on the Vanilloid Receptor 1 (VRI/TRPV1 Receptor)
The agonistic or antagonistic action of the substances to be investigated on the vanilloid receptor 1 (VR1/TRPV1) of the species rat can be determined using the following assay. According to this assay, the Ca^2+ influx through the receptor channel is quantified with the aid of a Ca^2+-sensitive dye (Type Fluo-4, Molecular Probes Europe BV, Leiden Netherlands) in a fluorescent imaging plate reader (FLIPR, Molecular Devices, Sunnyvale, USA).
Complete medium: 50 mL of HAMS F12 Nutrient Mixture (Gibco Invitrogen GmbH, Karlsruhe, Germany) with
10% by volume of FCS (fetal calf serum, Gibco Invitrogen GmbH, Karlsruhe, Germany, heat-inactivated);
2 mM L-glutamine (Sigma, Munich, Germany);
1% by weight of AA solution (antibiotic/antimycotic solution, PAA, Pasching, Austria) and 25 ng/mL of Medium NGF (2.5 S, Gibco Invitrogen GmbH, Karlsruhe, Germany) […]
The DRGs are in each case repeatedly suspended, drawn through No. 1, No. 12 and No. 16 needles by means of a syringe and transferred to 50 mL Falcon tubes and these are filled to 15 mL with complete medium. […] The resulting pellet is in each case taken up in 250 μL of complete medium and the cell count is determined. […]

T1 sequence (O35433 whole entry): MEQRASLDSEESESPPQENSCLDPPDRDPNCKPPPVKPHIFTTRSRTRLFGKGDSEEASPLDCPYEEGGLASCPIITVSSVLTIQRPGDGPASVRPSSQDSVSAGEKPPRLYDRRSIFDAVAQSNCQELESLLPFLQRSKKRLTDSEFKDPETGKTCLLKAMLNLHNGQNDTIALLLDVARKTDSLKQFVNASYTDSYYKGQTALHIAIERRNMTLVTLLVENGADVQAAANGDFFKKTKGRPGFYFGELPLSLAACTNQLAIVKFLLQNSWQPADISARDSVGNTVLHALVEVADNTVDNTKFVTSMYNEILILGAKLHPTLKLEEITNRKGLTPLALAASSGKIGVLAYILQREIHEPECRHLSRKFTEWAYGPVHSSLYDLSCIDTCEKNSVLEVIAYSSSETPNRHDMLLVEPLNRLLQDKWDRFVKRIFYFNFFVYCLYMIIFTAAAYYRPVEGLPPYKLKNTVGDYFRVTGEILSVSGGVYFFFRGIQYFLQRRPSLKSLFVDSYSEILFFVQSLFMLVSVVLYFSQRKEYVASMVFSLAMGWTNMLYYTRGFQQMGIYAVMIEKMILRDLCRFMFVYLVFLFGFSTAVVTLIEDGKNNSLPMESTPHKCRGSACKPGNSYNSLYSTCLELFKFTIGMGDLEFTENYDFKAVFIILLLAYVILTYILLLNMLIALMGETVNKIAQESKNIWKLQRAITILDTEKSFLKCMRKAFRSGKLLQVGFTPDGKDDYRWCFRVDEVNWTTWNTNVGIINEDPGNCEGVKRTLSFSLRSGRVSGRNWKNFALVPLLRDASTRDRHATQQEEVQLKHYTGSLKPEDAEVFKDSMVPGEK

Take `CC(C)(C)c1ccc(CN2CCN(Cc3ccc(NS(C)(=O)=O)cc3)C2=O)cc1` [Example 4, N-{4-[3-(4-tert-butylbenzyl)-2-oxoimidazolidin-1-ylmethyl]-phenyl}methanesulfonamide]: half-maximal inhibition (IC50) required 9.4 µM.
The figure for `CC(C)(C)c1ccc(CN2CCCN(Cc3ccc(NS(C)(=O)=O)cc3)C2=O)cc1` [Example 5, N-{4-[3-(4-tert-butylbenzyl)-2-oxotetrahydropyrimidin-1-ylmethyl]-phenyl}methanesulfonamide] is 2.9 µM.

Values taken from patent US8207182B2, “Substituted cyclic urea derivatives and the use thereof as vanilloid receptor 1 modulators” (Gruenenthal GmbH, priority 2005, dated 2012).
